Where a name gives a salt, the structure may show the parent alone.
Test system: XBP1s-luc 293 LUC
Assay: cellular PD assay, XBP1s-LUC reporter (Example 903)
Assay type: cell-based
Settings: Table 1; read-out: XBP1s-luc 293 LUC (IC50)
How it was run: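 A luciferase fusion, in frame and expressed only when the XBP1 transcript is spliced, served as the readout of cellular IRE1α activity in an XBP1-Luc reporter line.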

| Compound | IC50 |
| --- | --- |
| Cc1ccc2c(NC(=O)CC(F)(F)F)cccc2c1Oc1ncccc1-c1ccnc(N[C@H]2CCCNC2)n1 [Example 252, (S)-3,3,3-Trifluoro-N-(6-methyl-5-(3-(2-(piperidin-3-ylamino)pyrimidin-4-yl)pyridin-2-yloxy)naphthalen-1-yl)propanamide] | 134 nM |
| Cc1ccc2c(NC(=O)C3CC4(CCC4)C3)cccc2c1Oc1ncccc1-c1ccnc(N[C@H]2CCCNC2)n1 [Example 255, (S)—N-(6-Methyl-5-((3-(2-(piperidin-3-ylamino)pyrimidin-4-yl)pyridin-2-yl)oxy)naphthalen-1-yl)spiro[3.3]heptane-2-carboxamide] | 182 nM |
| Cc1ccc2c(NCc3csc(C(C)C)n3)cccc2c1Oc1ncccc1-c1ccnc(N[C@H]2CCCNC2)n1 [Example 256, (S)-4-(2-((5-(((2-Isopropylthiazol-4-yl)methyl)amino)-2-methylnaphthalen-1-yl)oxy)pyridin-3-yl)-N-(piperidin-3-yl)pyrimidin-2-amine] | 210 nM |
| Cc1ccc2c(Nc3cc(C)n(C)n3)cccc2c1Oc1ncccc1-c1ccnc(N[C@H]2CCCNC2)n1 [Example 258, (S)-4-(2-((5-((1,5-Dimethyl-1H-pyrazol-3-yl)amino)-2-methylnaphthalen-1-yl)oxy)pyridin-3-yl)-N-(piperidin-3-yl)pyrimidin-2-amine] | 419 nM |
| CCCS(=O)(=O)Nc1cccc2c(Oc3ncc(CC)cc3-c3ccnc(N[C@H]4CCCNC4)n3)c(C)ccc12 [Example 259, (S)—N-(5-((5-ethyl-3-(2-(piperidin-3-ylamino)pyrimidin-4-yl)pyridin-2-yl)oxy)-6-methylnaphthalen-1-yl)propane-1-sulfonamide] | 361 nM |
| Cc1ccc2c(NCCc3cscn3)cccc2c1Oc1ncccc1-c1ccnc(N[C@H]2CCCNC2)n1 [Example 260, (S)-4-(2-((2-Methyl-5-((2-(thiazol-4-yl)ethyl)amino)naphthalen-1-yl)oxy)pyridin-3-yl)-N-(piperidin-3-yl)pyrimidin-2-amine] | 103 nM |
| Cc1ccc2c(NCc3ccccn3)cccc2c1Oc1ncccc1-c1ccnc(N[C@H]2CCCNC2)n1 [Example 261, (S)-4-(2-((2-Methyl-5-((pyridin-2-ylmethyl)amino)naphthalen-1-yl)oxy)pyridin-3-yl)-N-(piperidin-3-yl)pyrimidin-2-amine] | 220 nM |
| Cc1ccc2c(NCc3ccn(C)n3)cccc2c1Oc1ncccc1-c1ccnc(N[C@H]2CCCNC2)n1 [Example 262, (S)-4-(2-((2-Methyl-5-(((1-methyl-1H-pyrazol-3-yl)methyl)amino)naphthalen-1-yl)oxy)pyridin-3-yl)-N-(piperidin-3-yl)pyrimidin-2-amine] | 171 nM |
| Cc1ccc2c(NC(=O)C(C)C)cccc2c1Oc1ncccc1-c1ccnc(N[C@H]2CCCNC2)n1 [Example 263, (S)—N-(6-Methyl-5-((3-(2-(piperidin-3-ylamino)pyrimidin-4-yl)pyridin-2-yl)oxy)naphthalen-1-yl)isobutyramide hydrochloride] | 362 nM |
| Cc1ccc2c(NC(=O)CC3(C)CCCCC3)cccc2c1Oc1ncccc1-c1ccnc(N[C@H]2CCCNC2)n1 [Example 264, (S)—N-(6-Methyl-5-((3-(2-(piperidin-3-ylamino)pyrimidin-4-yl)pyridin-2-yl)oxy)naphthalen-1-yl)-2-(1-methylcyclohexyl)acetamide hydrochloride] | 350 nM |
| Cc1ccc2c(NCc3cnn(C)c3)cccc2c1Oc1ncccc1-c1ccnc(N[C@H]2CCCNC2)n1 [Example 265, (S)-4-(2-((2-Methyl-5-(((1-methyl-1H-pyrazol-4-yl)methyl)amino)naphthalen-1-yl)oxy)pyridin-3-yl)-N-(piperidin-3-yl)pyrimidin-2-amine] | 393 nM |
| Cc1ccc2c(NC(=O)CC3(C)CCCC3)cccc2c1Oc1ncccc1-c1ccnc(N[C@H]2CCCNC2)n1 [Example 267, (S)—N-(6-Methyl-5-((3-(2-(piperidin-3-ylamino)pyrimidin-4-yl)pyridin-2-yl)oxy)naphthalen-1-yl)-2-(1-methylcyclopentyl)acetamide] | 162 nM |
| Cc1ccc2c(NC(=O)CC3(C)CC3)cccc2c1Oc1ncccc1-c1ccnc(N[C@H]2CCCNC2)n1 [Example 268, (S)—N-(6-Methyl-5-((3-(2-(piperidin-3-ylamino)pyrimidin-4-yl)pyridin-2-yl)oxy)naphthalen-1-yl)-2-(1-methylcyclopropyl)acetamide] | 257 nM |
| Cc1ccc2c(NC(=O)C3CC3)c(F)ccc2c1Oc1ncccc1-c1ccnc(N[C@H]2CCCNC2)n1 [Example 271, (S)—N-(2-Fluoro-6-methyl-5-((3-(2-(piperidin-3-ylamino)pyrimidin-4-yl)pyridin-2-yl)oxy)naphthalen-1-yl)cyclopropanecarboxamide] | 271 nM |
| CCn1ccc(Nc2cccc3c(Oc4ncccc4-c4ccnc(N[C@H]5CCCNC5)n4)c(C)ccc23)n1 [Example 272, (S)-4-(2-((5-((1-Ethyl-1H-pyrazol-3-yl)amino)-2-methylnaphthalen-1-yl)oxy)pyridin-3-yl)-N-(piperidin-3-yl)pyrimidin-2-amine] | 463 nM |
| Cc1ccc2c(NC(=O)CC(C)(C)C)c(F)ccc2c1Oc1ncccc1-c1ccnc(N[C@H]2CCCNC2)n1 [Example 275, (S)—N-(2-Fluoro-6-methyl-5-((3-(2-(piperidin-3-ylamino)pyrimidin-4-yl)pyridin-2-yl)oxy)naphthalen-1-yl)-3,3-dimethylbutanamide] | 75 nM |
| Cc1ccc2c(NS(=O)(=O)CCC(F)(F)F)c(F)ccc2c1Oc1ncccc1-c1ccnc(N[C@H]2CCCNC2)n1 [Example 276, (S)-3,3,3-Trifluoro-N-(2-fluoro-6-methyl-5-((3-(2-(piperidin-3-ylamino)pyrimidin-4-yl)pyridin-2-yl)oxy)naphthalen-1-yl)propane-1-sulfonamide hydrochloride] | 44.1 nM |
| Cc1ccc2c(NS(=O)(=O)CC(C)C)c(F)ccc2c1Oc1ncccc1-c1ccnc(N[C@H]2CCCNC2)n1 [Example 279, (S)—N-(2-Fluoro-6-methyl-5-((3-(2-(piperidin-3-ylamino)pyrimidin-4-yl)pyridin-2-yl)oxy)naphthalen-1-yl)-2-methylpropane-1-sulfonamide] | 24.7 nM |
| Cc1cc(CNc2cccc3c(Oc4ncccc4-c4ccnc(N[C@H]5CCCNC5)n4)c(C)ccc23)no1 [Example 280, (S)-4-(2-((2-Methyl-5-(((5-methylisoxazol-3-yl)methyl)amino)naphthalen-1-yl)oxy)pyridin-3-yl)-N-(piperidin-3-yl)pyrimidin-2-amine] | 134 nM |
| Cc1ccc2c(NS(=O)(=O)C3CCCCC3)c(F)ccc2c1Oc1ncccc1-c1ccnc(N[C@H]2CCCNC2)n1 [Example 282, (S)—N-(2-Fluoro-6-methyl-5-((3-(2-(piperidin-3-ylamino)pyrimidin-4-yl)pyridin-2-yl)oxy)naphthalen-1-yl)cyclohexanesulfonamide] | 24.8 nM |
| Cc1ccc2c(NS(=O)(=O)Cc3ccccc3)c(F)ccc2c1Oc1ncccc1-c1ccnc(N[C@H]2CCCNC2)n1 [Example 283, (S)—N-(2-Fluoro-6-methyl-5-((3-(2-(piperidin-3-ylamino)pyrimidin-4-yl)pyridin-2-yl)oxy)naphthalen-1-yl)-1-phenylmethanesulfonamide] | 2.96 nM |

Source: patent publication US10968203B2, “Pyrimidinyl-pyridyloxy-naphthyl compounds and methods of treating IRE1-related diseases and disorders” (Genentech, Inc., priority 2017, dated 2021)
